The source of these data is patent publication US11111259B2, “Acylsulfonamide derivatives for treating senescence-associated diseases and disorders” (Unity Biotechnology, Inc., priority 2015, dated 2021).

Usually Kd stands for a measure of binding affinity in units of concentration. Broadly, the EC50 is the concentration at which the effect is half-maximal. A lower EC50 goes with higher potency in that assay.

The target in experiment [1] is BCL-xL (Homo sapiens, UniProt Q07817). Put plainly: BCL-binding assay (AlphaLISA competition, BAD peptide). The note with it: 6xHis BCL-xL with biotinylated BAD peptide, 24 hr incubation. The procedure:
(§1) Compounds were prepared as 400× DMSO stock solutions in a 1:4 dilution series then diluted […] in assay buffer (25 mM HEPES pH 7.5, 100 mM NaCl, 0.1% BSA, 0.005% Tween) immediately before use. Aliquots of 400 nM 6xHis-tagged BCL-xL, BCL-2, and BCL-w were thawed on ice and diluted to 0.4 (BCL-XL) or 0.8 (BCL-W and 2) nM in assay buffer. Aliquots of biotinylated BIM and BAD peptides were diluted in assay buffer to 120 and 60 nM respectively. Ten microliters of biotinylated peptide were added to wells of a 96-well PCR plate, followed by ten microliters of inhibitor, then ten microliters of BCL protein, BCL-XL with BAD and BCL-W/2 with BIM. The plates were sealed and incubated at room temperature. After 24 hr, 0.16 μg Anti-His conjugated AlphaLISA acceptor beads were added in 5 μL assay buffer. After one hour at room temperature, 0.16 μg AlphaScreen streptavidin donor beads were added in 5 μL assay buffer and plates were incubated an additional 30 min in the dark. Two 17 μL aliquots of each reaction were plated in a Perkin Elmer 384-well proxiplate, and plates were scanned for using a Perkin Elmer Enspire plate reader. Kd values were calculated in Prism Graph Pad using a one site competitive binding model and previously determined Kd values for each protein peptide pair. […]
Background: Bead proximity is the source of the signal in Alpha formats.

The target of experiment [2] is BCL-2 (Homo sapiens, UniProt P10415). Kind of experiment: BCL-binding assay (AlphaLISA competition, BIM peptide). The note with it: 6xHis BCL-2 with biotinylated BIM peptide, 24 hr incubation. The procedure:
as §1

Experiment [3] has as its target T1, BCL-w (Homo sapiens, UniProt Q92843).
T1 sequence (Q92843 1-193): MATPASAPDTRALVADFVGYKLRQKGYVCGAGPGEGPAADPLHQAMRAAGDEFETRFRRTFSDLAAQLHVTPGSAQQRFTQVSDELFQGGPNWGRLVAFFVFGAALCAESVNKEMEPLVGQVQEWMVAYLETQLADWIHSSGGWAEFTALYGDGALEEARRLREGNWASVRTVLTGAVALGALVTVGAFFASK
Described as above. The note with it: 6xHis BCL-w with biotinylated BIM peptide, 24 hr incubation. The method, then:
as §1

Experiment [4] relates to IMR-90 SnC (irradiated senescent IMR90 cells). Kind of experiment: Senolysis assay (CellTiter-Glo viability). It is filed as cell-based, human. The conditions noted are these: for EC50: Homo sapiens, IMR-90, light or radiation study, 72 h, X-ray irradiated senescent IMR90 cells, viability three days after compound addition; for SI (ratio of EC50 of non-senescent cells to EC50 of senescent cells): IMR90 non-senescent vs senescent cells. The procedure:
IMR90 cells are maintained in DMEM supplemented with 10% FBS. To prepare a senescent population, cells were trypsinized, diluted to 50,000 per mL, and irradiated with 10-15 Gy of X-ray irradiation. Irradiated cells were plated at 5000 cells per well in one third of a 96-well plate and maintained for two weeks prior to the assay. Four days prior to the assay, non-senescent IMR90s were plated at 2500 per well in the second third of the plate. One day prior to the assay, 2500 non-senescent cells were plated in the final third of the plate. Compounds were prepared as a 200×DMSO dilution series then diluted to 1× in media immediately before adding to cells. Three days after compound addition, cell viability was measured using CellTiter-Glo reagent from Promega. Viability was calculated relative to a DMSO control and EC50 values are calculated in Prism GraphPad. […] The selectivity (SI) of the compounds described herein is a ratio of the EC50 of non-senescent cells to the EC50 of senescent cells. The SI of the compounds described herein is 10 or above for “A” selectivity, between 2 and 10 for “B” selectivity or 2 or less for “C” selectivity.
(In general: ATP-based viability assays read luminescence as a measure of living cells.)

BCL-2, sequence (P10415 whole entry, species assumed): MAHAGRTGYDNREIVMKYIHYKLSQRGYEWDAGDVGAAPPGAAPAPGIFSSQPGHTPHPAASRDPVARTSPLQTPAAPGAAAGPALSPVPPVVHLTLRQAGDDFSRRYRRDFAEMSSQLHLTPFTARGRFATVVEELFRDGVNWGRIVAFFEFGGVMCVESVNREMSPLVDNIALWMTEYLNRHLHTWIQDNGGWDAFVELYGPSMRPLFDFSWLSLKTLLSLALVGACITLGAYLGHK
BCL-xL, sequence (Q07817 whole entry, species assumed): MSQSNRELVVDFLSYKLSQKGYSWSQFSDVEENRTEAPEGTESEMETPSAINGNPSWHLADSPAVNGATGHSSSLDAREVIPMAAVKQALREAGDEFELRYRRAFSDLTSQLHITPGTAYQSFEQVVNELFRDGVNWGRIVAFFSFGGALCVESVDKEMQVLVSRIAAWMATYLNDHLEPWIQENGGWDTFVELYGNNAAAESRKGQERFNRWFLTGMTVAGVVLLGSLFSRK

With `CCOP(=O)(C=C1CCN(CC[C@H](CSc2ccccc2)Nc2ccc(S(=O)(=O)NC(=O)c3ccc(N4CCN(CC5=C(c6ccc(Cl)cc6)CCC(C)(C)C5)CC4)cc3)cc2S(=O)(=O)C(F)(F)F)CC1)OCC` [Compound 41, Diethyl (R)-((1-(3-((4-(N-(4-(4-((4′-chloro-4,4-dimethyl-3,4,5,6-tetrahydro-[1,1′-biphenyl]-2-yl)methyl)piperazin-1-yl)benzoyl)sulfamoyl)-2-((trifluoromethyl)sulfonyl)phenyl)amino)-4-(phenylthio)butyl)piperidin-4-ylidene)methyl)phosphonate], the Kd in experiment [1] was less than 1 nM; in experiment [2] it was less than 1 nM; in experiment [3], 1 to 10 nM. Moreover, the EC50 in experiment [4] is less than 1000 nM. The “SI (ratio of EC50 of non-senescent cells to EC50 of senescent cells)” value in experiment [4] is recorded as “A (10 or above)”.

`CC1(C)CCC(c2ccc(Cl)cc2)=C(CN2CCN(c3ccc(C(=O)NS(=O)(=O)c4ccc(N[C@H](CCN5CCN(CCP(=O)(OCOC(=O)C(C)(C)C)OCOC(=O)C(C)(C)C)CC5)CSc5ccccc5)c(S(=O)(=O)C(F)(F)F)c4)cc3)CC2)C1` [Compound 43, (R)-(((2-(4-(3-((4-(N-(4-(4-((4′-chloro-4,4-dimethyl-3,4,5,6-tetrahydro-[1,1′-biphenyl]-2-yl)methyl)piperazin-1-yl)benzoyl)sulfamoyl)-2-((trifluoromethyl)sulfonyl)phenyl)amino)-4-(phenylthio)butyl)piperazin-1-yl)ethyl)phosphoryl)bis(oxy))bis(methylene) bis(2,2-dimethylpropanoate)]: the dissociation constant Kd is 1 to 10 nM in experiment [1], less than 1 nM in experiment [2] and 10 to 50 nM in experiment [3]. The molecule also showed an EC50 in experiment [4] greater than 10000 nM.

For `CCOP(=O)(CN1CCN(CC[C@H](C[S+]([O-])c2ccccc2)Nc2ccc(S(=O)(=O)NC(=O)c3ccc(N4CCN(CC5=C(c6ccc(Cl)cc6)CCC(C)(C)C5)CC4)cc3)cc2S(=O)(=O)C(F)(F)F)CC1)OCC` (stereo partly drawn) [Compound 44, Diethyl ((4-((3R)-3-((4-(N-(4-(4-((4′-chloro-4,4-dimethyl-3,4,5,6-tetrahydro-[1,1′-biphenyl]-2-yl)methyl)piperazin-1-yl)benzoyl)sulfamoyl)-2-((trifluoromethyl)sulfonyl)phenyl)amino)-4-(phenylsulfinyl)butyl)piperazin-1-yl)methyl)phosphonate], the values for the Kd in experiment [1], in experiment [2] and in experiment [3] were less than 1 nM, less than 1 nM and 10 to 50 nM, respectively. In addition, the 50% effective concentration (EC50) in experiment [4] lay within 1000 to 10000 nM. Also, the “SI (ratio of EC50 of non-senescent cells to EC50 of senescent cells)” value in experiment [4] was “B (between 2 and 10)”.

As for `CC1(C)CCC(c2ccc(Cl)cc2)=C(CN2CCN(c3ccc(C(=O)NS(=O)(=O)c4ccc(N[C@H](CCN5CCN(CCP(=O)(O)OCOC(=O)C(C)(C)C)CC5)CSc5ccccc5)c(S(=O)(=O)C(F)(F)F)c4)cc3)CC2)C1` [Compound 45, (((2-(4-((R)-3-((4-(N-(4-(4-((4′-chloro-4,4-dimethyl-3,4,5,6-tetrahydro-[1,1′-biphenyl]-2-yl)methyl)piperazin-1-yl)benzoyl)sulfamoyl)-2-((trifluoromethyl)sulfonyl)phenyl)amino)-4-(phenylthio)butyl)piperazin-1-yl)ethyl)(hydroxy)phosphoryl)oxy)methyl pivalate], the Kd in experiment [1] was less than 1 nM; in experiment [2], less than 1 nM; in experiment [3], 1 to 10 nM. Further, the EC50 in experiment [4] is greater than 10000 nM.

Turning to `CC1(C)CCC(c2ccc(Cl)cc2)=C(CN2CCN(c3ccc(C(=O)NS(=O)(=O)c4ccc(N[C@H](CCN5CCC(CP(=O)(OCOC(=O)C(C)(C)C)OCOC(=O)C(C)(C)C)CC5)CSc5ccccc5)c(S(=O)(=O)C(F)(F)F)c4)cc3)CC2)C1` [Compound 46], the Kd in experiment [1] was 1 to 10 nM; in experiment [2] it was 1 to 10 nM; in experiment [3], greater than 50 nM. Further, in experiment [4], the EC50 is greater than 10000 nM.

Take `CC1(C)CCC(c2ccc(Cl)cc2)=C(CN2CCN(c3ccc(C(=O)NS(=O)(=O)c4ccc(N[C@H](CCN5CCC(CP(=O)(O)O)CC5)CSc5ccccc5)c(S(=O)(=O)C(F)(F)F)c4)cc3)CC2)C1` [Compound 47]: the Kd is less than 1 nM in experiment [1], less than 1 nM in experiment [2] and 1 to 10 nM in experiment [3]. In addition, in experiment [4], the EC50 was greater than 10000 nM.

In the case of `CCOP(=O)(CC1CCN(CC[C@H](CSc2ccccc2)Nc2ccc(S(=O)(=O)NC(=O)c3ccc(N4CCN(CC5=C(c6ccc(Cl)cc6)CCC(C)(C)C5)CC4)cc3)cc2S(=O)(=O)C(F)(F)F)CC1)OCOC(=O)C(C)(C)C` (stereo partly drawn) [Compound 48, (((1-((R)-3-((4-(N-(4-(4-((4′-chloro-4,4-dimethyl-3,4,5,6-tetrahydro-[1,1′-biphenyl]-2-yl)methyl)piperazin-1-yl)benzoyl)sulfamoyl)-2-((trifluoromethyl)sulfonyl)phenyl)amino)-4-(phenylthio)butyl)piperidin-4-yl)methyl)(ethoxy)phosphoryl)oxy)methyl pivalate], the figures for the Kd in experiment [1], in experiment [2] and in experiment [3] were less than 1 nM, less than 1 nM and 1 to 10 nM, respectively. Also, the EC50 in experiment [4] is less than 1000 nM. Moreover, the “SI (ratio of EC50 of non-senescent cells to EC50 of senescent cells)” value in experiment [4] is “A (10 or above)”.

On to `CCOP(=O)(CN1CCN(CC[C@H](CSc2ccccc2)Nc2ccc(S(=O)(=O)NC(=O)c3ccc(N4CCN(Cc5ccccc5-c5ccc(Cl)cc5)CC4)cc3)cc2S(=O)(=O)C(F)(F)F)CC1)OCC` [Compound 51, Diethyl (R)-((4-(3-((4-(N-(4-(4-((4′-chloro-[1,1′-biphenyl]-2-yl)methyl)piperazin-1-yl)benzoyl)sulfamoyl)-2-((trifluoromethyl)sulfonyl)phenyl)amino)-4-(phenylthio)butyl)piperazin-1-yl)methyl)phosphonate], for which the Kd in experiment [1] was less than 1 nM; in experiment [2] it was less than 1 nM; in experiment [3] it was 1 to 10 nM. Moreover, the EC50 in experiment [4] was in the range of 1000 to 10000 nM. Further, in experiment [4], the “SI (ratio of EC50 of non-senescent cells to EC50 of senescent cells)” value is “B (between 2 and 10)”.

Regarding `CCOP(=O)(O)CN1CCN(CC[C@H](CSc2ccccc2)Nc2ccc(S(=O)(=O)NC(=O)c3ccc(N4CCN(Cc5ccccc5-c5ccc(Cl)cc5)CC4)cc3)cc2S(=O)(=O)C(F)(F)F)CC1` [Compound 53, Ethyl hydrogen ((4-((R)-3-((4-(N-(4-(4-((4′-chloro-[1,1′-biphenyl]-2-yl)methyl)piperazin-1-yl)benzoyl)sulfamoyl)-2-((trifluoromethyl)sulfonyl)phenyl)amino)-4-(phenylthio)butyl)piperazin-1-yl)methyl)phosphonate], the Kd in experiment [1], in experiment [2] and in experiment [3] was less than 1 nM each time. Besides, the EC50 in experiment [4] is greater than 10000 nM.

Regarding `CCOP(=O)(CN1CCN(CC[C@H](CSc2ccccc2)Nc2ccc(S(=O)(=O)NC(=O)c3ccc(N4CCN(Cc5ccccc5-c5ccc(Cl)cc5)CC4)cc3)cc2S(=O)(=O)C(F)(F)F)CC1)OCOC(=O)C(C)(C)C` (stereo partly drawn) [Compound 54, (((4-((R)-3-((4-(N-(4-(4-((4′-chloro-[1,1′-biphenyl]-2-yl)methyl)piperazin-1-yl)benzoyl)sulfamoyl)-2-((trifluoromethyl)sulfonyl)phenyl)amino)-4-(phenylthio)butyl)piperazin-1-yl)methyl)(ethoxy)phosphoryl)oxy)methyl pivalate], the Kd in experiment [1] was less than 1 nM; in experiment [2], less than 1 nM; in experiment [3] it was 1 to 10 nM. Moreover, the EC50 in experiment [4] lay in the range of 1000 to 10000 nM. Further, the “SI (ratio of EC50 of non-senescent cells to EC50 of senescent cells)” value in experiment [4] was “B (between 2 and 10)”.
